Residues, ends and D or L forms follow the SMILES beside them. No end group written: not given here. *: point of attachment. Cbz = O=C(OCc1ccccc1)*; CH2F = FC*
What was measured:
paraptosis = details: cited from earlier work
[1] = system: paraptosis induced by caspase 7, caspase 8 or caspase 9; experiment: Inhibition of paraptosis induced by caspases; format: cell-based
Protocol: (§1) Test compounds were added to IGFIR-IC transfected 293T cells at the time of transfection.

[2] = system: striatal, cortical, and hippocampal neurons; experiment: SP-induced cell death in primary striatal, cortical and hippocampal neurons, trypan blue viability and staining; format: cell-based, rat; details: for effect on SP-induced cell death in neurons: caspase inhibitors at 50 μM
Protocol: Rat neuronal primary cell cultures were also used to assay for inducers and inhibitors of paraptosis. Briefly, primary striatal, cortical and hippocampal cultures were prepared from 17-day-old Sprague-Dawley rat embryos (B&K). The tissue was dissected, minced and trypsinized for five minutes using 0.25% trypsin (Cell Grow). After the addition of 10% horse serum (Life Technologies) to inhibit the trypsin, the cell suspension was triturated 15–20 times with a 10 ml syringe and centrifuged for five minutes at 800×g. The pellet was resuspended in MEM-PAK (UCSF Cell Culture facility), supplemented with 2.02 gm glucose, 2 mM GLUTAMAX™ (Life Technologies) and penicillin/streptomycin (100 U/ml). The suspension was filtered through a […] cell strainer and the final culture medium contained 5% horse serum. Subsequently, 3-4×10^5 cells per Cm^2 were seeded onto either poly-D-lysine precoated 8-well chamber slides (Becton-Dickson Labware) or 96 well plates precoated with […] of poly-D-lysine (Sigma) in water. After 30 minutes of incubation time, unattached cells were removed together with the medium and replaced with glucose enriched MEM-PAK plus 5% horse serum. The cultures were then incubated at 37° C. in 95% air 5% carbon dioxide with 95% humidity. Cultures were used for experiments between day 1 and day 7 when glial contamination was at a minimum.
Primary neuronal cells were prepared as described in Example I. SP (SIGMA) at a concentration of 0.1 nM–100 μM was added 24–48 hrs after seeding, in the presence of 2.5% horse serum. When the cultures were maintained for more than 5 days, 10 μM cytosine arabinoside was added for 24 hours, beginning 3 days after plating the cells. Viability was quantified by trypan blue staining of the total cell population.
The following compounds were added at the same time as SP in the indicated experiments: 5 nM L-732, 138; 1 nM L-733,060; 1 μg/ml Actinomycin D or 1 μg/ml Cycloheximide. All of these compounds were obtained from SIGMA. The caspase inhibitors zVAD.fmk and BAF were added at 50 μM and obtained from Enzyme System Products, Livermore, Calif.
Either neuronal primary cultures or human embryonic kidney 293T cells were fixed with 4% paraformaldehyde and stained with 0.5 μg/ml DAPI (Molecular Probes) or Hoechst(SIGMA). […]
(§2) The protein kinase inhibitors were added 30 min before SP exposure at the following concentrations: 10 μM Rp-8-Br-cAMPS (adenosin 3′,5′-cyclic monophosphorothioate, 8-bromo-, Rp-isomer, sodium salt) which is a PKA inhibitor; 50 nM Calphostin C, which is a PKC inhibitor; 10 μM PD 98059 which is a MAPKK (MEK) inhibitor. These compounds were obtained from Calbiochem. Viability was quantified by trypan blue staining of the total cell population.

[3] = system: 293T cells transfected with NK1R; experiment: SP-induced, NK1R-mediated cell death in 293T cells transfected with NK1R, trypan blue and staining; format: cell-based, human; details: for effect on NK1R-mediated cell death in 293T cells: caspase inhibitors at 50 μM
Protocol: (§3) Human embryonic kidney 293T cells were grown as described in Example I. Transient transfection was performed using Superfect (Qiagen) as described by the manufacturer. Briefly, 2×10^5 cells/well were seeded into 35 mm wells 16 hr prior to transfection. Superfect:DNA complexes were added at a 5 μl:2 μg ratio for 3 hr; then the medium was replaced and after 24 hr SP was added. At 24–48 hr after addition of SP cell death was quantified as follows: the media containing floating cells were collected and centrifuged 10 min at 2000×g, the pellet was resuspended in PBS/trypan blue and the cells were counted using a hematocytometer. When other compounds were used, they were added at the same time as SP: zVAD.fmk or BAF was added at 50 μM and obtained from Enzyme System Products, Livermore, Calif.
Briefly, the method entailed cloning the full-length (1.2 kb) NK1R cDNA (Genbank Accession No. M31477) by RT-PCR from adult rat hippocampal RNA into the XbaI/EcoRI sites of the vector pcDNA3.1 (Invitrogen), using the following oligonucleotides: forward 5′[…] 3′ (SEQ ID NO:2); reverse 5′[…] 3′ (SEQ ID NO:3).
Cells were stained according to the manufacturer's instructions (Clontech). Briefly, cellswere washed with binding buffer and incubated with FITC-Annexin-V or EGFPAnnexin-V for 5–10 min and fixed with 4% paraformaldehyde.
Cells were fixed 10 min with 4% paraformaldehyde and stained according to the manufacturer's instructions (Promega).
as §2

[4] = system: caspase-8 transfected cells; experiment: Apoptosis induced by over-expression of caspase-8 in 293T cells; format: cell-based, human; details: caspase inhibitors at 50 μM
Protocol: as §3

293T cells = experiment: Induction of paraptosis in 293T cells, LDH cell death assay; format: cell-based, human; details: 293T cells
Protocol: Human embryonic kidney 293T cell line cells were used to assay for inducers and inhibitors of paraptosis. These cells were cultured in high glucose DMEM (Life Technologies) supplemented with 10% FBS (Sigma) and 1% penicillin/streptomycin (Life Technologies). The cultures were incubated at 37° C. in 95% air 5% carbon dioxide with 95% humidity.
(§4) Subsequently, compounds were added to 293T cells and/or rat neuronal primary cell culture cells in order to determine if the compounds could induce paraptosis. Cell death was assayed using the lactate dehydrogenase (LDH) assay, in which the relative amount of enzyme released from dying cells in the medium is measured by following the disappearance of nicotinamide adenine dinucleotide, reduced form (NADH) in the following reaction: pyruvate+NADH <−>NAD^++ lactate. Briefly, 50 μl of culture medium for either 293T cells or 100 μl of culture medium for neuronal primary culture were dispensed in a 96 well plate to which 100 μl of a solution consisting of 5 mg of NADH dissolved in 20 ml of PBS and 0.5 ml of 100 mM NaPyruvate. NADH disappearance was assessed by kinetic photmetric readings at a 340 nm wavelength at 19 minute intervals over a period of 2 hours and 30 minutes.
Constructs of pcDNA3 containing procaspase-7 or procaspase-8 were transiently transfected into 293T cells using Lipofect-Amine (GIBCO-BRL) according to the manufacturer's instructions. Briefly, 1×10^6 293T cells were seeded in 6 cm dishes, and transfected the next day using a ratio of DNA:Lipofect-Amine of 1 μg:5 μl. Transfection efficiency was 60–80% for 293T cells, as determined by X-gal staining after transfection of a β-galactosidase construct.

[5] = system: rat neuronal primary cell cultures; experiment: Induction of paraptosis in rat neuronal primary cell cultures, LDH cell death assay; format: cell-based
Protocol: Rat neuronal primary cell cultures were also used to assay for inducers and inhibitors of paraptosis. Briefly, primary striatal, cortical and hippocampal cultures were prepared from 17-day-old Sprague-Dawley rat embryos (B&K). The tissue was dissected, minced and trypsinized for five minutes using 0.25% trypsin (Cell Grow). After the addition of 10% horse serum (Life Technologies) to inhibit the trypsin, the cell suspension was triturated 15–20 times with a 10 ml syringe and centrifuged for five minutes at 800×g. The pellet was resuspended in MEM-PAK (UCSF Cell Culture facility), supplemented with 2.02 gm glucose, 2 mM GLUTAMAX™ (Life Technologies) and penicillin/streptomycin (100 U/ml). […]
as §4, with “Briefly, 50 μl of culture medium for either 293T cells or 100 μl of culture medium for neuronal primary culture were dispensed in a 96 well plate to which 100 μl of a solution consisting of 5 mg of NADH dissolved in 20 ml of PBS and 0.5 ml of 100 mM NaPyruvate.” left out

[6] = system: IGFIR-IC transfected 293T cells; experiment: Inhibition of IGFIR-IC induced paraptosis in transfected 293T cells, LDH assay; format: cell-based, human; details: for effect on IGFIR-induced paraptosis: concentration not given
Protocol: Paraptosis was induced in 293T cells by expressing the intracellular domain of the insulin-like growth factor I receptor (IGFIR-IC) in these cells using transient transfection as described above.
as §1
The TRAF2 dominant negative mutant contains a deletion of the amino terminal 271 amino acids of the protein. The ratio of IGFIR-IC:AIP1 and IGFIR-IC:TRAF2DN was 1:3. […] Antisense oligonucleotide constructs for JNK1 or JNK2 (50–100 nM) were transfected into 293T cells one day before transfection with the IGFIR-IC construct. For all inhibition assays, cell viability was measured using the LDH assay.

ERK-1/2 = experiment: Western blot of ERK-1/2 phosphorylation in 293T cells expressing NK1R; format: cell-based, human; details: 10 μM
Protocol: For the transfected 293T cells, cells were washed with cold PBS after incubation with SP the time indicate and homogenized on lysis buffer (150 mM NaCl, 1% Triton X-100, 50 mM Tris HCL pH8.0). Cytoplasmic extracts were collected after 10 min centrifugation at 14,000 rcf. Total amount of protein was quantified by Bradford assay and electrophoresis of equal amounts of total protein was performed on SDS-polyacrylamide gels. Separated proteins were transferred to polyvinylidene fluoride membranes at 4° C. for Western blot analysis. Membranes were probed with a 1:1000 dilution of anti-ERK-1/2 or anti phospho-ERK-1/2 (BioSource). The blots were incubated in a horseradish peroxidase coupled secondary antibody for 1 h followed by enhanced chemiluminescence detection of the proteins with […]™ ECL detection (Amersham, Arlington Heights, Ill.). For striatal neurons, total ERK-1/2 was immunoprecipitated using superparamagnetic Microbeads conjugated to protein A, following manufacture's instructions (MACS, Miltenyi Biotec), and then developed by Western blot against either anti-ERK-1/2 or anti phospho-ERK-1/2.

SP-induced paraptosis = experiment: Inhibition of SP-induced paraptosis, cells not specified; format: cell-based; details: concentration not given
[7] = molecular target: neurokinin-1 receptor (NK1R) (Rattus norvegicus, UniProt P14600); details: cited from earlier work
Sequence of neurokinin-1 receptor (NK1R) (P14600 whole entry): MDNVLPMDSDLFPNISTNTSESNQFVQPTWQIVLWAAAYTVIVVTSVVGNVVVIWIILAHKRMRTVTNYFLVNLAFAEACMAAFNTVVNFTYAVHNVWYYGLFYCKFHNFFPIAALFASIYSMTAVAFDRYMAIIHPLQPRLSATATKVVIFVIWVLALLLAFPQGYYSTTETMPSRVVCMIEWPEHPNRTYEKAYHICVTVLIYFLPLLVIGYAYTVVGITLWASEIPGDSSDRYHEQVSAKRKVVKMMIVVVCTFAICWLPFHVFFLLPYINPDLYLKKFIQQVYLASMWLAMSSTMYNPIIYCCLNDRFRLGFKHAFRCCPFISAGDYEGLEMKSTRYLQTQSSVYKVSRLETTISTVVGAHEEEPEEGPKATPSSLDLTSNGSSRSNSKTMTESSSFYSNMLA

COC(=O)CC(NC(=O)OC(C)(C)C)C(=O)CF (stereo not shown) [BAF, Box-aspartyl.fmk]
effect of caspase inhibitors on paraptosis (paraptosis): lack of effect
inhibition of paraptosis induction by caspase-7 and caspase-8 [1]: subject to inhibition
effect on SP-induced cell death in neurons [2]: not inhibited
effect on NK1R-mediated cell death in 293T cells [3]: lack of effect
effect on apoptosis induced by over-expression of caspase-8 [4]: completely abolished

CCCCCCCCCCCCC/C=C/[C@@H](O)[C@H](CO)NC(C)=O [C2 ceramide, N-Acetyl-D-sphingosine]
concentration at which found to induce paraptosis (293T cells): 15 to 100 µM
concentration at which found to induce paraptosis [5]: 15 to 100 µM

N[C@@H](CCC(=O)O)C(=O)O [Glutamic Acid, (S)-2-aminopentanedioic acid]
concentration at which found to induce paraptosis [5]: 50 to 500 µM

COc1cccc(-c2cc(=O)c3ccccc3o2)c1N [PD 98059]
effect on IGFIR-induced paraptosis [6]: not blocked
effect on neuronal cell death in response to SP ([2]; added 30 min before SP: 10 μM PD 98059, 50 nM Calphostin C, 10 μM Rp-8-Br-cAMPS): completely blocked
effect on phosphorylation of ERK-1/2 (ERK-1/2): effectively reduced
effect on non-neuronal NK1R-mediated pcd ([3]; 10 μM): inhibited

N#CC(=C(/N)Sc1ccccc1N)/C(C#N)=C(/N)Sc1ccccc1N [UO126]
effect on IGFIR-induced paraptosis [6]: can be inhibited
effect on SP-induced paraptosis (SP-induced paraptosis): can be inhibited

COC(=O)C[C@H](NC(=O)[C@H](C)NC(=O)[C@@H](NC(=O)OCc1ccccc1)C(C)C)C(=O)CF [zVAD.fmk] (Cbz-Val-Ala-Asp(OMe)-CH2F)
effect of caspase inhibitors on paraptosis (paraptosis): lack of effect
inhibition of paraptosis induction by caspase-7 and caspase-8 [1]: subject to inhibition
effect on SP-induced cell death in neurons [2]: not inhibited
effect on NK1R-mediated cell death in 293T cells [3]: lack of effect
effect on apoptosis induced by over-expression of caspase-8 [4]: completely abolished

SP 6–11: truncated form of SP containing amino acids 6 through 11 of the SP polypeptide (QFFGLM; ends and bridges not checked)
affinity for NK1R [7]: good affinity
induction of cell death by NK1R agonists ([2]; compared with SP): able to induce cell death as well as SP

B1: p35: caspase inhibitor (protein, UniProt P08160 1-299, looked up)
Early 35 kDa protein: MCVIFPVEIDVSQTIIRDCQVDKQTRELVYINKIMNTQLTKPVLMMFNISGPIRSVTRKNNNLRDRIKSKVDEQFDQLERDYSDQMDGFHDSIKYFKDEHYSVSCQNGSVLKSKFAKILKSHDYTDKKSIEAYEKYCLPKLVDERNDYYVAVCVLKPGFENGSNQVLSFEYNPIGNKVIVPFAHEINDTGLYEYDVVAYVDSVQFDGEQFEEFVQSLILPSSFKNSEKVLYYNEASKNKSMIYKALEFTTESSWGKSEKYNWKIFCNGFIYDKKSKVLYVKLHNVTSALNKNVILNTIK
effect of caspase inhibitors on paraptosis (paraptosis): lack of effect
inhibition of paraptosis induction by caspase-7 and caspase-8 [1]: subject to inhibition

B2: AIP-1: Alg-2 interacting protein 1, co-transfected with the IGFIR-IC construct (protein, UniProt Q8WUM4 2-868, looked up)
Programmed cell death …: ATFISVQLKKTSEVDLAKPLVKFIQQTYPSGGEEQAQYCRAAEELSKLRRAAVGRPLDKHEGALETLLRYYDQICSIEPKFPFSENQICLTFTWKDAFDKGSLFGGSVKLALASLGYEKSCVLFNCAALASQIAAEQNLDNDEGLKIAAKHYQFASGAFLHIKETVLSALSREPTVDISPDTVGTLSLIMLAQAQEVFFLKATRDKMKDAIIAKLANQAADYFGDAFKQCQYKDTLPKEVFPVLAAKHCIMQANAEYHQSILAKQQKKFGEEIARLQHAAELIKTVASRYDEYVNVKDFSDKINRALAAAKKDNDFIYHDRVPDLKDLDPIGKATLVKSTPVNVPISQKFTDLFEKMVPVSVQQSLAAYNQRKADLVNRSIAQMREATTLANGVLASLNLPAAIEDVSGDTVPQSILTKSRSVIEQGGIQTVDQLIKELPELLQRNREILDESLRLLDEEEATDNDLRAKFKERWQRTPSNELYKPLRAEGTNFRTVLDKAVQADGQVKECYQSHRDTIVLLCKPEPELNAAIPSANPAKTMQGSEVVNVLKSLLSNLDEVKKEREGLENDLKSVNFDMTSKFLTALAQDGVINEEALSVTELDRVYGGLTTKVQESLKKQEGLLKNIQVSHQEFSKMKQSNNEANLREEVLKNLATAYDNFVELVANLKEGTKFYNELTEILVRFQNKCSDIVFARKTERDELLKDLQQSIAREPSAPSIPTPAYQSSPAGGHAPTPPTPAPRTMPPTKPQPPARPPPPVLPANRAPSATAPSPVGAGTAAPAPSQTPGSAPPPQAQGPPYPTYPGYPGYCQMPMPMGYNPYAYGQYNMPYPPVYHQSPGQAPYPGPQQPSYPFPQPPQQSYYPQQ
inhibition of IGFIR-IC induced paraptosis ([6]; co-transfected with the IGFIR-IC construct, ratio 1:3): able to inhibit IGFIR-IC induced paraptosis
effect on SP-induced paraptosis (SP-induced paraptosis): can be inhibited

— patent US6994981B2, “Modulators of paraptosis and related methods” (The Buck Institute, priority 2002, dated 2006)
